The values that follow come from patent US10561681B2, “Antimetastatic 2H-selenopheno[3,2-h]chromenes, synthesis thereof, and methods of using same agents” (Latvian Institute of Organic Synthesis, priority 2016, dated 2020).

Where “and” joins values, the source holds several entries; their conditions need not be identical. Identical values can stand only once. Like-named read-outs stand apart in the source and are kept apart here.

What all share (format): cell-based
For series [1], the system named is A549 (human lung carcinoma). Description: In vitro cytotoxicity, MTT test. Conditions: Homo sapiens, A549, 72 h, read-out: Cytotoxicity IC50, A549. As for the experimental part:
(§1) Anticancer activity of selenopheno[h]chromenes was tested in vitro using cytotoxicity assay. […] About 2-9·10^4 cells/mL (depending on line nature) were placed in 96-well plates immediately after compounds were added to the wells. Untreated cells were used as a control. The plates were incubated for 72 h, 37° C., 5% CO2. The number of surviving cells was determined using 3-(4,5-dimethylthiazol-2-yl)-2,5-diphenyltetrazolinium bromide (MTT). MTT-test: after incubating culture medium was removed and 200 μL fresh medium with 10 mM HEPES was added in each well of the plate, than 20 μL MTT (2 mg/mL in HBSS) was added. After incubation (3 hr, 37° C., 5% CO2), the medium with MTT was removed and 200 μL DMSO were added at once to each sample. The samples were tested at 540 nm on Anthos HT II photometer.

Another series relates to CCL-8 (mouse sarcoma). Description: In vitro cytotoxicity, MTT test. Conditions: 72 h, read-out: Cytotoxicity IC50, CCL-8. As for the experimental part:
as §1

In series [2] the test system is HT-1080 (human fibrosarcoma). In words: In vitro cytotoxicity, MTT test. Conditions: read-out: Cytotoxicity IC50, HT-1080. As for the experimental part: as §1
(In general: Tetrazolium assays rely on reduction of a dye to a coloured formazan, in cell work by metabolically active cells.)

Series [3] concerns HepG2 (human hepatocellular carcinoma). Description: In vitro cytotoxicity, MTT test. Conditions: read-out: Cytotoxicity IC50, HepG2. As for the experimental part: as §1
Series [4] deals with MCF-7 (human breast adenocarcinoma, estrogen-positive). Description: In vitro cytotoxicity, MTT test. Conditions: read-out: Cytotoxicity IC50, MCF-7. As for the experimental part:
as §1

The subject of series [5] is MDA-MB-435s (human melanoma). Description: In vitro cytotoxicity, MTT test. Conditions: 72 h, read-out: Cytotoxicity IC50, MDA-MB-435s. As for the experimental part: as §1
The test system of series [6] is MES-SA (human uterus sarcoma). Description: In vitro cytotoxicity, MTT test. Conditions: 72 h, read-out: Cytotoxicity IC50, MES-SA. As for the experimental part: as §1
In another series the test system is MG-22A (mouse hepatoma). Description: In vitro cytotoxicity, MTT test. Conditions: 72 h, read-out: Cytotoxicity IC50, MG-22A. As for the experimental part: as §1
In series [7] the test system is SH-SY5Y (human neuroblastoma). Description: In vitro cytotoxicity, MTT test. Conditions: Homo sapiens, SH-SY5Y, 72 h, read-out: Cytotoxicity IC50, SHSY5Y. As for the experimental part:
as §1

A short description of series [8]: Basal cytotoxicity test, Neutral Red Uptake (NRU) assay. Conditions: for LD50 at 24 h: mouse, po, acute oral LD50 calculated from 3T3 NRU IC50 by regression formula, read-out: Basal cytotoxicity Estimated* LD50; for IC50 at 24 h: normal mouse embryo fibroblasts, read-out: Cytotoxicity IC50, 3T3. As for the experimental part: In parallel, the borderline concentration relevant to the highest tolerated dose has been determined for each compound using the NIH 3T3 (mouse embryo fibroblasts) cell line and the basal cytotoxicity obtained has then been used to predict the starting doses for in vivo acute oral LD50 values in rodents.
the Neutral Red Uptake (NRU) assay was performed according to the standard protocol of Stokes modified by the NICEATM-ECVAM validation study. The NRU cytotoxicity assay procedure is based on the ability of viable cells to incorporate and bind Neutral Red, a supravitally dye. Balb/c 3T3 (Mouse Swiss Albino embryo fibroblast) cells (9000 cells/well) were placed into 96-well plates for 24 h in Dulbecco's modified Eagle's (DMEM) medium containing 5% fetal bovine serum. The cells were then exposed to the test compounds over a range of […] concentrations (1000, 316, 100, 31, 10, 3, 1 μg/ml) for 24 h. Untreated cells were used as a control. After 24 h, the medium was removed from all plates. Then, 250 μL of Neutral Red solution were added (0.05 mg/mL NR in DMEM 24 h pre-incubated at 37° C. and then filtered before use through 0.22-μm syringe filter). Plates were incubated for 3 h and then cells were washed three times with PBS. The dye within viable cells was released by extraction with a mixture of acetic acid, ethanol and water (1:50:49). Absorbance of Neutral Red was measured using a spectrophotometer multiplate reader (TECAN, Infinite M1000) at 540 nm. The percentage of living cells was calculated using the formula: OD (treated cells)*100/OD (control cells). The IC50 values were calculated using the programme Graph Pad Prism® 3.0.
Data from the in vitro tests were used for estimating the starting dose for acute oral systemic toxicity tests in rodents. […] The value is recalculated to mg/kg and compounds are evaluated in accordance with four toxicity categories: category 1: LD50≤5 mg/kg (highly toxic); category 2: 5<LD50≤50 mg/kg (moderately toxic); category 3: 50<LD50≤300 mg/kg (slightly toxic); category 4: 300<LD50≤2 000 mg/kg (practically non-toxic).

The next series concerns malignant tumor cells. In words: In vitro cytotoxicity on monolayer tumor cell lines (panel, summary in words). Conditions: summary of Table 1. As for the experimental part:
Anticancer activity of selenopheno[h]chromenes was tested in vitro using cytotoxicity assay. Thus, monolayer tumor cell lines MDA-MB-435s (human melanoma), MCF-7 (human breast adenocarcinoma, estrogen-positive), MES-SA (human uterus sarcoma), HT-1080 (human fibrosarcoma), A549 (human lung carcinoma), SH-SY5Y (human neuroblastoma), CCL-8 (mouse sarcoma), MG-22A (mouse hepatoma), and HepG2 (human hepatocellular carcinoma) were cultured in standard medium DMEM (Dulbecco's modified Eagle's medium) (“Sigma”) supplemented with 10% fetal bovine serum (“Sigma”). About 2-9·10^4 cells/mL (depending on line nature) were placed in 96-well plates immediately after compounds were added to the wells. Untreated cells were used as a control. The plates were incubated for 72 h, 37° C., 5% CO2. The number of surviving cells was determined using 3-(4,5-dimethylthiazol-2-yl)-2,5-diphenyltetrazolinium bromide (MTT). MTT-test: after incubating culture medium was removed and 200 μL fresh medium with 10 mM HEPES was added in each well of the plate, than 20 μL MTT (2 mg/mL in HBSS) was added. After incubation (3 hr, 37° C., 5% CO2), the medium with MTT was removed and 200 μL DMSO were added at once to each sample. The samples were tested at 540 nm on Anthos HT II photometer.

Usually IC50 stands for the concentration that inhibits the measured activity by half. One may read the LD50 as the dose expected to kill half of the subjects tested. As for `Cl.O=C(O)c1cc2ccc3c(Br)c(CN4CCCCC4)[se]c3c2oc1=O` [Compound I-13, 7-Bromo-2-oxo-8-(piperidin-1-ylmethyl)-2H-selenopheno[3,2-h]chromene-3-carboxylic acid hydrochloride], the IC50 in series [1] is 129 ± 6 µM; in the series with CCL-8 (mouse sarcoma), > 122 µM; in [2] (HT-1080, 72 h), 197 ± 3 µM; in series [3] (HepG2, 72 h), > 197 µM; in series [4] (MCF7, 72 h), 119 ± 2 µM; in series [5] it was 182 ± 11 µM. Moreover, the results for the 50% inhibitory concentration (IC50) (in [6]; in the series with MG-22A (mouse hepatoma); in series [7]) were 103 ± 9 µM, 49 ± 6 µM and > 197 µM, respectively. Further, the LD50 at 24 h in series [8] is 4300 µmol/kg and 2180 mg/kg. Moreover, the half-inhibitory concentration (IC50) at 24 h in series [8] is 197 ± 8 µM.
Take `Cl.O=C(O)c1cc2ccc3c(Br)c(CN4CCOCC4)[se]c3c2oc1=O` [Compound I-14, 7-Bromo-2-oxo-8-(morpholin-1-ylmethyl)-2H-selenopheno[3,2-h]chromene-3-carboxylic acid hydrochloride]: the IC50 amounted to 51 ± 8 µM in series [1]; 79 ± 9 µM in the series with CCL-8 (mouse sarcoma); 100 ± 6 µM in [2] (HT-1080, 72 h); 106 ± 9 µM in series [3] (HepG2, 72 h); 95 ± 9 µM in series [4] (MCF7, 72 h); 156 ± 9 µM in [5]. In addition, the IC50 in series [6] worked out at 65 ± 6 µM; with MG-22A (mouse hepatoma), 59 ± 2 µM; in [7] it was 35 ± 9 µM. Further, the LD50 at 24 h in [8] is 1320 mg/kg and 2600 µmol/kg. In series [8], the IC50 at 24 h worked out at 43 ± 2 µM. Also, the “Cytotoxicity on cancer cell lines” value with malignant tumor cells was “remained cytotoxicity on cancer cell lines”.
As to `COC1(c2[se]c3c(ccc4cc(C(=O)O[C@H]5CC[C@@]6(C)C(=CC[C@H]7[C@@H]8CC[C@H]([C@H](C)CCCC(C)C)[C@@]8(C)CC[C@@H]76)C5)c(=O)oc43)c2Br)CCCCC1` [Compound I-18, (3S,8S,9S,10R,13R,14S,17R)-10,13-Dimethyl-17-((R)-6-methylheptan-2-yl)-2,3,4,7,8,9,10,11,12,13,14,15,16,17-tetradecahydro-1H-cyclopenta[a]phenanthren-3-yl-7-bromo-8-(1-methoxycyclohexyl)-2-oxo-2H-selenopheno[3,2-h]chromene-3-carboxylate], the IC50 is > 117 µM in series [1] (MTT, 72 h); > 117 µM with CCL-8 (mouse sarcoma) (MTT); > 117 µM in [2] (HT-1080, MTT, 72 h); > 117 µM in series [3] (HepG2, MTT, 72 h); > 117 µM in [4] (MCF7, MTT, 72 h); > 117 µM in [5] (MTT). The IC50 (in [6] (MTT); with MG-22A (mouse hepatoma) (MTT); in series [7] (MTT)) was > 117 µM each time. The LD50 at 24 h in [8] is 3700 µmol/kg and 3190 mg/kg. The IC50 at 24 h in series [8] was > 117 µM.
Turning to `O=C(c1cc2ccc3c(Br)c(C4=CCCCC4)[se]c3c2oc1=O)N1CCCCC1` [Compound I-19, 7-Bromo-8-(cyclohex-1-en-1-yl)-3-(piperidine-1-carbonyl)-2H-selenopheno[3,2-h]chromen-2-one], the IC50 in series [1] (MTT, 72 h) is 100 ± 3 µM; in the series with CCL-8 (mouse sarcoma) (MTT) it was > 193 µM; in series [2] (HT-1080, MTT, 72 h), 50 ± 5 µM; in [3] (HepG2, MTT, 72 h), 103 ± 15 µM; in series [4] (MCF7, MTT, 72 h), 125 ± 8 µM; in series [5] (MTT) it was 51 ± 8 µM. For the same compound, the IC50 in series [6] (MTT) was 105 ± 4 µM; with MG-22A (mouse hepatoma) (MTT), 41 ± 2 µM; in series [7] (MTT), > 117 µM. In addition, the 50% lethal dose (LD50) at 24 h in series [8] was 1000 µmol/kg and 500 mg/kg. For the same compound, in series [8], the IC50 at 24 h was 161 ± 23 µM.
In the case of `O=C(c1cc2ccc3c(Br)c(C4=CCCCC4)[se]c3c2oc1=O)N1CCOCC1` [Compound I-20, 7-Bromo-8-(cyclohex-1-en-1-yl)-3-(morpholine-1-carbonyl)-2H-selenopheno[3,2-h]chromen-2-one], the 50% inhibitory concentration (IC50) was 38 ± 5 µM in series [1] (MTT, 72 h); 126 ± 4 µM with CCL-8 (mouse sarcoma) (MTT); 92 ± 12 µM in [2] (HT-1080, MTT, 72 h); 63 ± 6 µM in [3] (HepG2, MTT, 72 h); 81 ± 7 µM in series [4] (MCF7, MTT, 72 h); 13 ± 1 µM in series [5] (MTT). Further, the values for the IC50 (in series [6] (MTT); in the series with MG-22A (mouse hepatoma) (MTT); in series [7] (MTT)) were 61 ± 4 µM, 117 ± 7 µM and > 117 µM, respectively. Further, the LD50 at 24 h in series [8] is 3000 µmol/kg and 1600 mg/kg. The IC50 at 24 h in [8] was > 192 µM.
Consider `COCCN(CCOC)C(=O)c1cc2ccc3c(Br)c(C4=CCCCC4)[se]c3c2oc1=O` [Compound I-21, 7-Bromo-8-(cyclohex-1-en-1-yl)-N,N-bis(2-methoxyethyl)-2-oxo-2H-selenopheno[3,2-h]chromene-3-carboxamide], for which the IC50 came out at 61 ± 6 µM in series [1] (MTT, 72 h); 100 ± 8 µM in the series on CCL-8 (mouse sarcoma) (MTT); 51 ± 1 µM in series [2] (HT-1080, MTT, 72 h); 51 ± 7 µM in series [3] (HepG2, MTT, 72 h); 92 ± 12 µM in series [4] (MCF7, MTT, 72 h); 76 ± 4 µM in [5] (MTT). Also, the IC50 amounted to 73 ± 3 µM in series [6] (MTT), 46 ± 6 µM in the series with MG-22A (mouse hepatoma) (MTT) and 139 ± 6 µM in series [7] (MTT). Also, in series [8], the LD50 at 24 h is 700 µmol/kg and 384 mg/kg. The IC50 at 24 h in series [8] was determined as 131 ± 7 µM.
As to `COC1(c2[se]c3c(ccc4cc(C(=O)N5CCOCC5)c(=O)oc43)c2Br)CCCCC1` [Compound I-22, 7-Bromo-8-(1-methoxycyclohexyl)-3-(morpholine-4-carbonyl)-2H-selenopheno[3,2-h]chromen-2-one], the half-maximal inhibitory concentration (IC50) in series [1] (MTT, 72 h) was found to be 43 ± 4 µM; with CCL-8 (mouse sarcoma) (MTT), 39 ± 3 µM; in series [2] (HT-1080, MTT, 72 h) it was 38 ± 2 µM; in series [3] (HepG2, MTT, 72 h), 47 ± 2 µM; in series [4] (MCF7, MTT, 72 h), 18 ± 2 µM; in series [5] (MTT), 43 ± 3 µM. The IC50 in series [6] (MTT) was found to be 41 ± 2 µM; in the series with MG-22A (mouse hepatoma) (MTT) it was 37 ± 1 µM; in [7] (MTT), 98 ± 3 µM. Moreover, the LD50 at 24 h in series [8] is 300 µmol/kg and 195 mg/kg. Further, in [8], the IC50 at 24 h was 47 ± 4 µM.
